Results as given in the supplement of paper PMC8882468.

Tests used:
Assay in all cases: CTG-3D luminescence at 96 h relative to day-0 seeding control (ratio to day 0); higher = more growth / less cytotoxicity; PDxO 3D drug screen, 96 h, CTG-3D normalised to day-0 seeding control.
HCI-011.E2 = tested on: HCI-011.E2 (organoid from an ER-positive breast cancer xenograft)
HCI-001 = tested on: HCI-001 (organoid from a triple-negative breast cancer xenograft)
HCI-012 = tested on: HCI-012 (organoid from a breast cancer xenograft)
HCI-010 = tested on: HCI-010 (organoid from a breast cancer xenograft)
HCI-027 = tested on: HCI-027 (organoid from a triple-negative breast cancer xenograft)
MDA-MB-231 = tested on: MDA-MB-231

CN(Cc1cnc2nc(N)nc(N)c2n1)c1ccc(C(=O)N[C@@H](CCC(=O)O)C(=O)O)cc1 [methotrexate]
CTG-3D luminescence at 96 h
Details | 12.5 pM | 0.00025 µM | 0.005 µM | 0.1 µM | 1 µM | 10 µM | 100 µM | 625 fM
HCI-011.E2 | 1.46 | 1.77 | 1.44 | 1.83 | 1.62 | 2.08 | 2.21 | 1.59
MDA-MB-231 | 4.34 | 4.29 | 4.44 | 4.37 | 2.63 | 2.29 | 2.66 | 4.36

CTG-3D luminescence at 96 h
Details | 12.5 pM | 0.00025 µM | 0.005 µM | 0.1 µM | 1 µM | 10 µM | 100 µM | 625 fM
HCI-001, days in culture: 240 | 2.01 | 1.12 | 1.13 | 1.01 | 1.26 | 1.06 | 1.21 | 1.72
HCI-001, days in culture: 260 | 2.08 | 0.984 | 2.27 | 1.47 | 1.43 | 1.62 | 0.88 | 1.26
HCI-001, days in culture: 269 | 1.68 | 1.46 | 1.53 | 1.86 | 1.46 | 2.16 | 2.3 | 1.5
HCI-001, days in culture: 327 | 1.75 | 1.62 | 2.05 | 1.14 | 0.877 | 0.985 | 1.35 | 1.69
HCI-001, days in culture: 346 | 1.53 | 1.34 | 1.28 | 1.02 | 0.965 | 1.41 | 1.19 | 1.2
HCI-001, days in culture: 364 | 1.58 | 1.17 | 1.45 | 0.891 | 0.633 | 1.11 | 0.716 | 1.64
HCI-010, days in culture: 52 | 2.12 | 2.41 | 2.51 | 2.48 | 2.58 | 2.52 | 2.52 | 2.58
HCI-010, days in culture: 65 | 1.6 | 1.77 | 1.79 | 1.86 | 1.86 | 1.72 | 1.46 | 1.8
HCI-010, days in culture: 103 | 3.42 | 3.7 | 4.03 | 2.39 | 2.36 | 2.1 | 1.84 | 3.19
HCI-011.E2, days in culture: 74 | 1.97 | 2.4 | 1.99 | 2.27 | 2.49 | 3.6 | 2.24 | 2.17
HCI-012, days in culture: 143 | 2.07 | 1.83 | 2.09 | 1.37 | 1.4 | 1.33 | 1.51 | 2.07
HCI-012, days in culture: 162 | 2.66 | 2.5 | 2.06 | 1.69 | 1.04 | 1.12 | 1.06 | 2.7
HCI-012, days in culture: 201 | 2.49 | 2.01 | 1.57 | 0.935 | 1.44 | 0.611 | 1.21 | 1.49
HCI-027, days in culture: 176 | 2.07 | 1.47 | 2.43 | 1.51 | 1.97 | 1.55 | 1.68 | 1.28
HCI-027, days in culture: 194 | 1.69 | 1.38 | 1.57 | 1.17 | 1.04 | 1.07 | 0.572 | 1.44
HCI-027, days in culture: 201 | 1.69 | 1.66 | 2.26 | 1.14 | 0.939 | 0.886 | 0.445 | 1.25

CC1(C)CCC(c2ccc(Cl)cc2)=C(CN2CCN(c3ccc(C(=O)NS(=O)(=O)c4ccc(N[C@H](CCN5CCOCC5)CSc5ccccc5)c(S(=O)(=O)C(F)(F)F)c4)cc3)CC2)C1 [navitoclax]
CTG-3D luminescence at 96 h
Details | 12.5 pM | 0.00025 µM | 0.005 µM | 0.1 µM | 1 µM | 10 µM | 100 µM | 625 fM
HCI-011.E2 | 1.62 | 1.82 | 1.33 | 1.72 | 1.52 | 1.84 | 0.144 | 1.8
MDA-MB-231 | 4.52 | 4.44 | 4.56 | 4.28 | 3.8 | 1.42 | 0.000199 | 4.6

CTG-3D luminescence at 96 h
Details | 12.5 pM | 0.00025 µM | 0.005 µM | 0.1 µM | 1 µM | 10 µM | 100 µM | 625 fM
HCI-001, days in culture: 240 | 1.51 | 1.07 | 0.955 | 1.53 | 1.1 | 0.369 | 0.0412 | 1.73
HCI-001, days in culture: 260 | 2.66 | 1.09 | 1.83 | 1.92 | 1.58 | 0.642 | 0.0822 | 1.64
HCI-001, days in culture: 269 | 1.8 | 1.73 | 1.37 | 1.38 | 0.942 | 0.889 | 0.124 | 1.67
HCI-001, days in culture: 327 | 2.11 | 1.59 | 2.17 | 1.48 | 0.963 | 0.0556 | -0.168 | 2.04
HCI-001, days in culture: 346 | 1.64 | 1.22 | 1.38 | 1.24 | 1.3 | 0.577 | 0.00509 | 1.3
HCI-001, days in culture: 364 | 1.67 | 1.16 | 1.61 | 1.17 | 1.17 | 0.802 | 0.00601 | 1.63
HCI-010, days in culture: 52 | 2.01 | 2.27 | 2.15 | 0.695 | 0.0507 | 0.0304 | 0.0084 | 2.13
HCI-010, days in culture: 65 | 1.61 | 1.66 | 1.65 | 0.573 | 0.026 | 0.0135 | 0.00305 | 1.8
HCI-010, days in culture: 103 | 3.2 | 3.28 | 3.13 | 1.08 | 0.0477 | 0.0368 | 0.0191 | 2.7
HCI-011.E2, days in culture: 74 | 2.04 | 2.51 | 2.16 | 2.38 | 2.09 | 2.86 | 0.137 | 1.84
HCI-012, days in culture: 143 | 1.69 | 2.26 | 2.2 | 2.7 | 2.07 | 2.21 | 0.239 | 1.81
HCI-012, days in culture: 162 | 2.02 | 2.3 | 2.33 | 2.56 | 2.17 | 2.21 | 0.134 | 2.94
HCI-012, days in culture: 201 | 3.09 | 2.12 | 1.75 | 1.93 | 2.2 | 0.271 | -0.19 | 1.96
HCI-027, days in culture: 176 | 2.47 | 2.17 | 3.4 | 1.89 | 2.39 | 1.32 | -0.194 | 3.28
HCI-027, days in culture: 194 | 2.18 | 1.78 | 2.01 | 2.17 | 2.24 | 1.75 | 0.198 | 2.27
HCI-027, days in culture: 201 | 3.21 | 2.62 | 3.27 | 3.18 | 2.73 | 1.5 | 0.0321 | 2.76
